Test results reported in article PMC6467259 (Journal of the American Chemical Society, 2018).

Molecular target: PagF (Planktothrix agardhii, UniProt F5B6Z0, F222A)
Assay: crystal structure of the complex, […] Å
Settings: MgCl2; isoprene donor-binding site

## CC(C)=CCC/C(C)=C/COP(=O)(O)OP(=O)(O)O [GPP]
  crystal structure of the complex, 1.85 Å: crystals of Phe222→Ala PagF in complex with GPP and MgCl2
